# Test results published in PubChem BioAssay (NCI).
#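 Five compound concentrations were applied to cells in 96-well plates for 48 hours; endpoints were derived by simple linear interpolation of the resulting dose-response curve. At the GI50, growth is halved. TGI: total growth inhibition.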
# How the values were obtained:
# Assay in all cases: growth of human tumour cells (NCI), 48 h
# HCT-116 colon = tested on: HCT-116 colon
# ACHN renal = tested on: ACHN renal
# SNB-19 CNS = tested on: SNB-19 CNS
# PC-3 prostate = tested on: PC-3 prostate
# LOX IMVI melanoma = tested on: LOX IMVI melanoma
# HOP-92 NSCLC = tested on: HOP-92 NSCLC
# DU-145 prostate = tested on: DU-145 prostate
# HS 578T breast = tested on: HS 578T breast
# A498 renal = tested on: A498 renal
# NCI-H460 lung = tested on: NCI-H460 lung
# OVCAR-8 ovarian = tested on: OVCAR-8 ovarian
# MOLT-4 leukemia = tested on: MOLT-4 leukemia
# M14 melanoma = tested on: M14 melanoma
# SK-MEL-28 melanoma = tested on: SK-MEL-28 melanoma
# SNB-75 CNS = tested on: SNB-75 CNS
# HT29 colon = tested on: HT29 colon
# SN12C renal = tested on: SN12C renal
# RPMI-8226 leukemia = tested on: RPMI-8226 leukemia
# HCT-15 colon = tested on: HCT-15 colon
# SK-MEL-2 melanoma = tested on: SK-MEL-2 melanoma
# UO-31 renal = tested on: UO-31 renal
# CAKI-1 renal = tested on: CAKI-1 renal
# SW-620 colon = tested on: SW-620 colon
# IGROV1 ovarian = tested on: IGROV1 ovarian
# HL-60(TB) leukemia = tested on: HL-60(TB) leukemia
# NCI-H522 lung = tested on: NCI-H522 lung
# OVCAR-3 ovarian = tested on: OVCAR-3 ovarian
# SK-MEL-5 melanoma = tested on: SK-MEL-5 melanoma
# NCI/ADR-RES ovarian = tested on: NCI/ADR-RES ovarian
# HOP-62 NSCLC = tested on: HOP-62 NSCLC
# MCF7 breast = tested on: MCF7 breast
# TK-10 renal = tested on: TK-10 renal
# K-562 leukemia = tested on: K-562 leukemia
# A549 NSCLC = tested on: A549 NSCLC
# UACC-62 melanoma = tested on: UACC-62 melanoma
# MDA-MB-435 = tested on: MDA-MB-435
# HCC-2998 colon = tested on: HCC-2998 colon
# U251 CNS = tested on: U251 CNS
# 786-0 renal = tested on: 786-0 renal
# SF-295 CNS = tested on: SF-295 CNS
# BT-549 breast = tested on: BT-549 breast
# OVCAR-4 ovarian = tested on: OVCAR-4 ovarian
# MALME-3M melanoma = tested on: MALME-3M melanoma
# UACC-257 melanoma = tested on: UACC-257 melanoma
# MDA-MB-231 breast = tested on: MDA-MB-231 breast
# OVCAR-5 ovarian = tested on: OVCAR-5 ovarian
# COLO 205 colon = tested on: COLO 205 colon
# CCRF-CEM leukemia = tested on: CCRF-CEM leukemia
# SF-539 CNS = tested on: SF-539 CNS
# EKVX NSCLC = tested on: EKVX NSCLC
# SF-268 CNS = tested on: SF-268 CNS
# SK-OV-3 ovarian = tested on: SK-OV-3 ovarian
# RXF 393 renal = tested on: RXF 393 renal
# NCI-H23 lung = tested on: NCI-H23 lung
# SR leukemia = tested on: SR leukemia
# NCI-H226 lung = tested on: NCI-H226 lung
# KM12 colon = tested on: KM12 colon
structure (smiles),measurement,setting,value
CC/C=C\C/C=C\C[C@H]1C/C=C2/C(=O)C=C[C@@H]2C/C=C\CCC(=O)O1,GI50,HCT-116 colon,0.634 µM
same,TGI,HCT-116 colon,1.47 µM
same,GI50,ACHN renal,0.727 µM
same,TGI,ACHN renal,1.49 µM
same,GI50,SNB-19 CNS,3.15 µM
same,TGI,SNB-19 CNS,8.45 µM
same,GI50,PC-3 prostate,1.18 µM
same,TGI,PC-3 prostate,4.36 µM
same,GI50,LOX IMVI melanoma,0.563 µM
same,TGI,LOX IMVI melanoma,1.11 µM
same,GI50,HOP-92 NSCLC,3.93 µM
same,TGI,HOP-92 NSCLC,10.4 µM
same,GI50,DU-145 prostate,1.19 µM
same,TGI,DU-145 prostate,5.04 µM
same,GI50,HS 578T breast,6.08 µM
same,TGI,HS 578T breast,33.2 µM
same,GI50,A498 renal,5.38 µM
same,TGI,A498 renal,10.2 µM
same,GI50,NCI-H460 lung,1.46 µM
same,TGI,NCI-H460 lung,16.3 µM
same,GI50,OVCAR-8 ovarian,1.14 µM
same,TGI,OVCAR-8 ovarian,4.19 µM
same,GI50,MOLT-4 leukemia,0.976 µM
same,TGI,MOLT-4 leukemia,4.37 µM
same,GI50,M14 melanoma,1.02 µM
same,TGI,M14 melanoma,4.61 µM
same,GI50,SK-MEL-28 melanoma,1.02 µM
same,TGI,SK-MEL-28 melanoma,3.14 µM
same,GI50,SNB-75 CNS,1.4 µM
same,TGI,SNB-75 CNS,6.92 µM
same,GI50,HT29 colon,0.828 µM
same,TGI,HT29 colon,2.04 µM
same,GI50,SN12C renal,1.12 µM
same,TGI,SN12C renal,9.69 µM
same,GI50,RPMI-8226 leukemia,0.847 µM
same,TGI,RPMI-8226 leukemia,2.43 µM
same,GI50,HCT-15 colon,0.735 µM
same,TGI,HCT-15 colon,2.15 µM
same,GI50,SK-MEL-2 melanoma,0.871 µM
same,TGI,SK-MEL-2 melanoma,2.42 µM
same,GI50,UO-31 renal,1.36 µM
same,TGI,UO-31 renal,4.94 µM
same,GI50,CAKI-1 renal,1.29 µM
same,TGI,CAKI-1 renal,6.35 µM
same,GI50,SW-620 colon,1.65 µM
same,TGI,SW-620 colon,6.04 µM
same,GI50,IGROV1 ovarian,1.57 µM
same,TGI,IGROV1 ovarian,5.9 µM
same,GI50,HL-60(TB) leukemia,1.22 µM
same,TGI,HL-60(TB) leukemia,3.14 µM
same,GI50,NCI-H522 lung,0.524 µM
same,TGI,NCI-H522 lung,1.42 µM
same,GI50,OVCAR-3 ovarian,1.08 µM
same,TGI,OVCAR-3 ovarian,3.52 µM
same,GI50,SK-MEL-5 melanoma,0.776 µM
same,TGI,SK-MEL-5 melanoma,2.1 µM
same,GI50,NCI/ADR-RES ovarian,0.746 µM
same,TGI,NCI/ADR-RES ovarian,1.91 µM
same,GI50,HOP-62 NSCLC,1.18 µM
same,TGI,HOP-62 NSCLC,4.65 µM
same,GI50,MCF7 breast,0.936 µM
same,TGI,MCF7 breast,7.51 µM
same,GI50,TK-10 renal,1.26 µM
same,TGI,TK-10 renal,3.43 µM
same,GI50,K-562 leukemia,1.17 µM
same,TGI,K-562 leukemia,9.1 µM
same,GI50,A549 NSCLC,1.22 µM
same,TGI,A549 NSCLC,10.9 µM
same,GI50,UACC-62 melanoma,0.767 µM
same,TGI,UACC-62 melanoma,2.4 µM
same,GI50,MDA-MB-435,0.912 µM
same,TGI,MDA-MB-435,2.75 µM
same,GI50,HCC-2998 colon,0.871 µM
same,TGI,HCC-2998 colon,2.32 µM
same,GI50,U251 CNS,1.16 µM
same,TGI,U251 CNS,3.69 µM
same,GI50,786-0 renal,1.4 µM
same,TGI,786-0 renal,4.97 µM
same,GI50,SF-295 CNS,1.83 µM
same,TGI,SF-295 CNS,6.86 µM
same,GI50,BT-549 breast,1.1 µM
same,TGI,BT-549 breast,3.61 µM
same,GI50,OVCAR-4 ovarian,1.32 µM
same,TGI,OVCAR-4 ovarian,5.66 µM
same,GI50,MALME-3M melanoma,1.96 µM
same,TGI,MALME-3M melanoma,8.04 µM
same,GI50,UACC-257 melanoma,1.85 µM
same,TGI,UACC-257 melanoma,7.82 µM
same,GI50,MDA-MB-231 breast,1.07 µM
same,TGI,MDA-MB-231 breast,6.03 µM
same,GI50,OVCAR-5 ovarian,1.35 µM
same,TGI,OVCAR-5 ovarian,4.95 µM
same,GI50,COLO 205 colon,1.04 µM
same,TGI,COLO 205 colon,2.82 µM
same,GI50,CCRF-CEM leukemia,1.13 µM
same,TGI,CCRF-CEM leukemia,7.05 µM
same,GI50,SF-539 CNS,0.995 µM
same,TGI,SF-539 CNS,3.46 µM
same,GI50,EKVX NSCLC,1.51 µM
same,TGI,EKVX NSCLC,8.3 µM
same,GI50,SF-268 CNS,1.54 µM
same,TGI,SF-268 CNS,9.1 µM
same,GI50,SK-OV-3 ovarian,7.18 µM
same,TGI,SK-OV-3 ovarian,20.1 µM
same,GI50,RXF 393 renal,0.686 µM
same,TGI,RXF 393 renal,1.56 µM
same,GI50,NCI-H23 lung,0.793 µM
same,TGI,NCI-H23 lung,2.79 µM
COc1ccc(CN2C(=O)C(Cl)=C(Nc3cccc(O)c3)C2=O)cc1,GI50,HCT-116 colon,1.14 µM
same,TGI,HCT-116 colon,19.8 µM
same,GI50,ACHN renal,10.9 µM
same,TGI,ACHN renal,57.3 µM
same,GI50,PC-3 prostate,4.39 µM
same,TGI,PC-3 prostate,36.1 µM
same,GI50,LOX IMVI melanoma,5.7 µM
same,TGI,LOX IMVI melanoma,23 µM
same,GI50,HOP-92 NSCLC,12.1 µM
same,TGI,HOP-92 NSCLC,59.6 µM
same,GI50,DU-145 prostate,13.8 µM
same,TGI,DU-145 prostate,33 µM
same,GI50,HS 578T breast,9.62 µM
same,TGI,HS 578T breast,51.7 µM
same,GI50,A498 renal,14.2 µM
same,TGI,A498 renal,35.7 µM
same,GI50,SR leukemia,0.185 µM
same,TGI,SR leukemia,0.465 µM
same,GI50,NCI-H460 lung,14.6 µM
same,TGI,NCI-H460 lung,31.6 µM
same,GI50,OVCAR-8 ovarian,2.99 µM
same,TGI,OVCAR-8 ovarian,15 µM
same,GI50,MOLT-4 leukemia,0.501 µM
same,TGI,MOLT-4 leukemia,10.5 µM
same,GI50,M14 melanoma,5.63 µM
same,TGI,M14 melanoma,75.7 µM
same,GI50,SK-MEL-28 melanoma,13.3 µM
same,TGI,SK-MEL-28 melanoma,> 100 µM
same,GI50,SNB-75 CNS,6.73 µM
same,TGI,SNB-75 CNS,> 100 µM
same,GI50,HT29 colon,18 µM
same,TGI,HT29 colon,> 100 µM
same,GI50,SN12C renal,4.03 µM
same,TGI,SN12C renal,20.1 µM
same,GI50,RPMI-8226 leukemia,0.807 µM
same,TGI,RPMI-8226 leukemia,11.7 µM
same,GI50,HCT-15 colon,2.05 µM
same,TGI,HCT-15 colon,21.4 µM
same,GI50,SK-MEL-2 melanoma,4.16 µM
same,TGI,SK-MEL-2 melanoma,24.5 µM
same,GI50,UO-31 renal,6.91 µM
same,TGI,UO-31 renal,95.1 µM
same,GI50,CAKI-1 renal,1.68 µM
same,TGI,CAKI-1 renal,21.3 µM
same,GI50,SW-620 colon,4.69 µM
same,TGI,SW-620 colon,> 100 µM
same,GI50,NCI-H226 lung,6.44 µM
same,TGI,NCI-H226 lung,50.5 µM
same,GI50,IGROV1 ovarian,0.591 µM
same,TGI,IGROV1 ovarian,15.2 µM
same,GI50,HL-60(TB) leukemia,1.29 µM
same,TGI,HL-60(TB) leukemia,7.49 µM
same,GI50,NCI-H522 lung,2.31 µM
same,TGI,NCI-H522 lung,17.6 µM
same,GI50,OVCAR-3 ovarian,1.73 µM
same,TGI,OVCAR-3 ovarian,23.5 µM
same,GI50,SK-MEL-5 melanoma,3.78 µM
same,TGI,SK-MEL-5 melanoma,17.7 µM
same,GI50,HOP-62 NSCLC,8.61 µM
same,TGI,HOP-62 NSCLC,> 100 µM
same,GI50,MCF7 breast,3.64 µM
same,TGI,MCF7 breast,15.6 µM
same,GI50,TK-10 renal,3.77 µM
same,TGI,TK-10 renal,37 µM
same,GI50,K-562 leukemia,0.349 µM
same,TGI,K-562 leukemia,9.13 µM
same,GI50,A549 NSCLC,3.15 µM
same,TGI,A549 NSCLC,20.5 µM
same,GI50,UACC-62 melanoma,2.83 µM
same,TGI,UACC-62 melanoma,21.1 µM
same,GI50,MDA-MB-435,0.269 µM
same,TGI,MDA-MB-435,1.7 µM
same,GI50,U251 CNS,5.05 µM
same,TGI,U251 CNS,21.1 µM
same,GI50,786-0 renal,4.23 µM
same,TGI,786-0 renal,> 100 µM
same,GI50,SF-295 CNS,2.75 µM
same,TGI,SF-295 CNS,31.2 µM
same,GI50,BT-549 breast,13.7 µM
same,TGI,BT-549 breast,45.4 µM
same,GI50,OVCAR-4 ovarian,45.1 µM
same,TGI,OVCAR-4 ovarian,> 100 µM
same,GI50,UACC-257 melanoma,5.64 µM
same,TGI,UACC-257 melanoma,19.2 µM
same,GI50,MDA-MB-231 breast,6.43 µM
same,TGI,MDA-MB-231 breast,> 100 µM
same,GI50,CCRF-CEM leukemia,0.748 µM
same,TGI,CCRF-CEM leukemia,20.9 µM
same,GI50,SF-539 CNS,4.24 µM
same,TGI,SF-539 CNS,15.9 µM
same,GI50,EKVX NSCLC,21.5 µM
same,TGI,EKVX NSCLC,56 µM
same,GI50,SF-268 CNS,17.2 µM
same,TGI,SF-268 CNS,45.8 µM
same,GI50,RXF 393 renal,2.16 µM
same,TGI,RXF 393 renal,11.3 µM
same,GI50,KM12 colon,0.801 µM
same,TGI,KM12 colon,21.6 µM
